A value given as a limit tells only on which side of the number the result lay.

For this assay, the system named is 8×TBD luciferase reporter in HEK293T cells. Put plainly: YAP Reporter Assay (firefly luciferase). Format: cell-based. The settings on record: Homo sapiens, HEK-293T; HEK293T cells stably transfected with 8×TBD luciferase reporter and pRLTK; 24-hr incubation; starting from 3 μM, 1:3 dilution, 10 points. As for the experimental part: HEK293T cells stably transfected with 8×TBD luciferase reporter and pRLTK in 384-well plates were treated with the test compounds, starting from 3 μM (final concentration in assay plate), 1:3 dilution, and 10 points in quadruplicates. Post 24-hr incubation with compounds at 37° C. and 5% CO2, cells were lysed and 8×TBD-driven firefly luciferase and control TK-driven renilla luciferase activities were measured using Promega Dual-Luciferase Reporter Assay System.
Reagents: The reagents used for this study are: DMEM: Invitrogen #11960077, Dual-Glo Luciferase Assay System: Promega-E2980, Puromycin Dihydrochloride: Invitrogen-A1113803, 384-well plate: PerkinElmer-6007480, L-GLUTAMINE: Invitrogen-25030164, Hygromycin B: Invitrogen-10687010, and Penicillin-Streptomycin: Merk-TMS-AB2-C
Media: The media used for this assay were: Culture Medium: DMEM+1 ug/mL puromycin+200 ug/mL hygromycin (with 10% FBS+1 mM L-glutamine); and Assay Medium: DMEM (with 10% FBS+1 mM L-glutamine+1×P/S).
Cell Plating: The appropriate media was warmed at 37° C. by water bath: Culture Medium, Assay Medium, 1*D-PBS, 0.05% trypsin-EDTA. The cells were trypsinized after removing all media, then washed with 1*sterile D-PBS and then with 2 ml 0.05% trypsin-EDTA. The cells were then incubated at RT for one minute. Then 10 ml/75 cm2 flask Assay Medium was added to each flask. Using a 10 ml pipette, the cells were then gently resuspended in the media, until the clumps completely disappeared. The cells were then transferred into 50 ml centrifuge tubes and were centrifuged at 800 rpm for 5 mins. The medium was removed and the cells were resuspended with Assay Medium. An aliquot of cells was used to count the cell density (cells/ml). The cell suspension was then diluted with Assay Medium to a concentration of 6×10^4 cells/ml. 50 ul cells suspension was then plated to 384-well plate (PerkinElmer-6007480), 3×10^3 cells/well and the cells were incubated in an incubator at 37° C., 5% CO2.
Compound Treatment: In the afternoon (incubation of the plate with 3-4 hrs), the test compounds were added by Echo, starting from 3 uM (final concentration in the assay plate), 1:3 dilution, 10 points, quadruplicates. The plate was placed at 37° C., 5% CO2 incubator for 24 hrs.
Detection: The Dual-Glo Luciferase Reagent was prepared by transferring the contents of one bottle of Dual-Glo Luciferase Buffer to one bottle of Dual-Glo Luciferase Substrate to create the Dual-G Luciferase Reagent. Mixing was performed by inversion until the substrate was thoroughly dissolved. After mixing, the reagent was aliquoted into 15 ml tubes. In the afternoon (24 hrs post compound treatment), the DMEM+ medium in the 384 well plates were aspirated by Microplate Washer.
Measuring firefly luciferase activity: 20 ul Dual-Glo Luciferase Reagent was added to the 384-well plates. The plates were protected from light to prevent interference with the assay. The plates were shaken for […] followed centrifuging plates at 1000 rpm for 30 seconds. After waiting at least 10 minutes, the firefly luminescence was measured by Envision.
Measuring renilla luciferase activity: 20 ul Stop-Glo Reagent was added to the 384-well plates. The plates were shaken for […] and then centrifuged at 1000 rpm for 30 seconds. After waiting at least 10 minutes, the renilla luminescence was measured by Envision.
Compound IC50 and maximum inhibition on the firefly luciferase and renilla luciferase activities were reported separately.
For the compound `O=C(c1ccc2c(Oc3ccc(C(F)(F)F)cc3)cccc2c1)N1CC(CNCCF)C1` [Compound 36, (3-(((2-Fluoroethyl)amino)methyl)azetidin-1-yl)(5-(4-(trifluoromethyl)phenoxy)naphthalen-2-yl)methanone], the IC50 lay in the range of 100 to 1000 nM. `NCC1CN(C(=O)c2ccc3c(Oc4ccc(C(F)(F)F)cc4)cccc3c2)C1` [Compound 7, (3-(Aminomethyl)azetidin-1-yl)(5-(4-(trifluoromethyl)phenoxy)naphthalen-2-yl)methanone] had an IC50 not above 100 nM.

`CS(=O)(=O)NCC1CN(C(=O)c2ccc3c(Oc4ccc(C(F)(F)F)cc4)cccc3c2)C1` [Compound 17, N-((1-(5-(4-(trifluoromethyl)phenoxy)-2-naphthoyl)azetidin-3-yl)methyl)methanesulfonamide] showed an IC50 not above 100 nM. In turn, `CN(C)C(=O)c1ccc2c(Oc3ccc(C(F)(F)F)cc3)cccc2c1` [Compound 42, N,N-dimethyl-5-(4-(trifluoromethyl)phenoxy)naphthalene-2-carboxamide] displayed a half-maximal inhibitory concentration (IC50) of 100 to 1000 nM. The result for `O=C(c1ccc2c(Oc3ccc(C(F)(F)F)cc3)cccc2c1)N1CC(CO)C1` [Compound 13, (3-(Hydroxymethyl)azetidin-1-yl)(5-(4-(trifluoromethyl)phenoxy)naphthalen-2-yl)methanone] reads not above 100 nM; that for `O=C(c1ccc2c(Oc3ccc(C(F)(F)F)cc3)cccc2c1)N1CC2(CNC2)C1` [Compound 11, (2,6-Diazaspiro[3.3]heptan-2-yl)(5-(4-(trifluoromethyl)phenoxy)naphthalen-2-yl)methanone], 100 to 1000 nM; that for `CCNCC1CN(C(=O)c2ccc3c(Oc4ccc(C(F)(F)F)cc4)cccc3c2)C1` [Compound 33, (3-((Ethylamino)methyl)azetidin-1-yl)(5-(4-(trifluoromethyl)phenoxy)naphthalen-2-yl)methanone], 100 to 1000 nM. With `O=C(c1ccc2c(Oc3ccc(C(F)(F)F)cc3)cccc2c1)N1CC(CNCCO)C1` [Compound 37, (3-(((2-Hydroxyethyl)amino)methyl)azetidin-1-yl)(5-(4-(trifluoromethyl)phenoxy)naphthalen-2-yl)methanone], the IC50 is not above 100 nM. Take `CC(C)NCC1CN(C(=O)c2ccc3c(Oc4ccc(C(F)(F)F)cc4)cccc3c2)C1` [Compound 34, (3-((Isopropylamino)methyl)azetidin-1-yl)(5-(4-(trifluoromethyl)phenoxy)naphthalen-2-yl)methanone]: the IC50 lay in the range of 100 to 1000 nM. Compound `CCNC1CN(C(=O)c2ccc3c(Oc4ccc(C(F)(F)F)cc4)cccc3c2)C1` [Compound 27, (3-(Ethylamino)azetidin-1-yl)(5-(4-(trifluoromethyl)phenoxy)naphthalen-2-yl)methanone] had an IC50 of 100 to 1000 nM.

In the case of `COCCNCC1CN(C(=O)c2ccc3c(Oc4ccc(C(F)(F)F)cc4)cccc3c2)C1` [Compound 35, (3-(((2-Methoxyethyl)amino)methyl)azetidin-1-yl)(5-(4-(trifluoromethyl)phenoxy)naphthalen-2-yl)methanone], the IC50 was in the range of 100 to 1000 nM.

`NC1CCN(C(=O)c2ccc3c(Oc4ccc(C(F)(F)F)cc4)cccc3c2)C1` (stereo not shown) [Compound 3, (3-Aminopyrrolidin-1-yl)(5-(4-(trifluoromethyl)phenoxy)naphthalen-2-yl)methanone] showed an IC50 of 100 to 1000 nM. For the compound `NCC1CCN(C(=O)c2ccc3c(Oc4ccc(C(F)(F)F)cc4)cccc3c2)C1` (stereo not shown) [Compound 8, (3-(Aminomethyl)pyrrolidin-1-yl)(5-(4-(trifluoromethyl)phenoxy)naphthalen-2-yl)methanone], the IC50 was not above 100 nM. Consider `CC(C)N1CC2(CN(C(=O)c3ccc4c(Oc5ccc(C(F)(F)F)cc5)cccc4c3)C2)C1` [Compound 20, (6-Isopropyl-2,6-diazaspiro[3.3]heptan-2-yl)(5-(4-(trifluoromethyl)phenoxy)naphthalen-2-yl)methanone], for which the half-maximal inhibitory concentration (IC50) is 100 to 1000 nM.

`COCCNC1CN(C(=O)c2ccc3c(Oc4ccc(C(F)(F)F)cc4)cccc3c2)C1` [Compound 29, (3-((2-Methoxyethyl)amino)azetidin-1-yl)(5-(4-(trifluoromethyl)phenoxy)naphthalen-2-yl)methanone] showed a half-inhibitory concentration (IC50) of 100 to 1000 nM. `COCCN1CC2(C1)CN(C(=O)c1ccc3c(Oc4ccc(C(F)(F)F)cc4)cccc3c1)C2` [Compound 22, (6-(2-Methoxyethyl)-2,6-diazaspiro[3.3]heptan-2-yl)(5-(4-(trifluoromethyl)phenoxy)naphthalen-2-yl)methanone] registered an IC50 of 100 to 1000 nM. Compound `CC(C)NC1CN(C(=O)c2ccc3c(Oc4ccc(C(F)(F)F)cc4)cccc3c2)C1` [Compound 28, (3-(Isopropylamino)azetidin-1-yl)(5-(4-(trifluoromethyl)phenoxy)naphthalen-2-yl)methanone] came in with an IC50 not above 100 nM. The result for `CC(=O)NC1CN(C(=O)c2ccc3c(Oc4ccc(C(F)(F)F)cc4)cccc3c2)C1` [Compound 1, N-(1-(5-(4-(Trifluoromethyl)phenoxy)-2-naphthoyl)azetidin-3-yl)acetamide] reads not above 100 nM; that for `O=C(c1ccc2c(Oc3ccc(C(F)(F)F)cc3)cccc2c1)N1CC(CNc2ccccn2)C1` [Compound 40, (3-((Pyridin-2-ylamino)methyl)azetidin-1-yl)(5-(4-(trifluoromethyl)phenoxy)naphthalen-2-yl)methanone], not above 100 nM.

As to `NC1CCN(C(=O)c2ccc3c(Oc4ccc(C(F)(F)F)cc4)cccc3c2)CC1` [Compound 4, (4-Aminopiperidin-1-yl)(5-(4-(trifluoromethyl)phenoxy)naphthalen-2-yl)methanone], the half-maximal inhibitory concentration (IC50) is not above 100 nM.

Regarding `CC(=O)NCC1CN(C(=O)c2ccc3c(Oc4ccc(C(F)(F)F)cc4)cccc3c2)C1` [Compound 16, N-((1-(5-(4-(trifluoromethyl)phenoxy)-2-naphthoyl)azetidin-3-yl)methyl)acetamide], the IC50 was not above 100 nM. Turning to `O=C(c1ccc2c(Oc3ccc(C(F)(F)F)cc3)cccc2c1)N1CC(CNCC(F)F)C1` [Compound 38, (3-(((2,2-Fifluoroethyl)amino)methyl)azetidin-1-yl)(5-(4-(trifluoromethyl)phenoxy)naphthalen-2-yl)methanone], the IC50 is not above 100 nM.

Consider `O=C(c1ccc2c(Oc3ccc(C(F)(F)F)cc3)cccc2c1)N1CC(Nc2ccccn2)C1` [Compound 39, (3-(Pyridin-2-ylamino)azetidin-1-yl)(5-(4-(trifluoromethyl)phenoxy)naphthalen-2-yl)methanone], for which the IC50 lay in the range of 100 to 1000 nM.

In turn, `CN(C#N)C(=O)c1ccc2c(Oc3ccc(C(F)(F)F)cc3)cccc2c1` [Compound 43, N-cyano-N-methyl-5-(4-(trifluoromethyl)phenoxy)-2-naphthamide] showed an IC50 not above 100 nM. Compound `O=C(c1ccc2c(Oc3ccc(C(F)(F)F)cc3)cccc2c1)N1CC(NCCO)C1` [Compound 30, (3-((2-Hydroxyethyl)amino)azetidin-1-yl)(5-(4-(trifluoromethyl)phenoxy)naphthalen-2-yl)methanone] gave an IC50 not above 100 nM. The result for `O=C(c1ccc2c(Oc3ccc(C(F)(F)F)cc3)cccc2c1)N1CC(NCC(F)F)C1` [Compound 32, (3-((2,2-Difluoroethyl)amino)azetidin-1-yl)(5-(4-(trifluoromethyl)phenoxy)naphthalen-2-yl)methanone] reads 100 to 1000 nM; that for `O=C(c1ccc2c(Oc3ccc(C(F)(F)F)cc3)cccc2c1)N1CC(O)C1` [Compound 15, (3-Hydroxyazetidin-1-yl)(5-(4-(trifluoromethyl)phenoxy)naphthalen-2-yl)methanone], not above 100 nM; that for `O=C(c1ccc2c(Oc3ccc(C(F)(F)F)cc3)cccc2c1)N1CC2(CN(CCO)C2)C1` [Compound 21, (6-(2-Hydroxyethyl)-2,6-diazaspiro[3.3]heptan-2-yl)(5-(4-(trifluoromethyl)phenoxy)naphthalen-2-yl)methanone], 100 to 1000 nM.

For the origin of these results see US20240025913A1, “TERTIARY CARBOXAMIDE COMPOUNDS” (Vivace Therapeutics, Inc., priority 2020, published 2024).
